According to patent US10981932B2, “Macrocyclic indole derivatives” (Bayer Aktiengesellschaft, priority 2016, dated 2021):
Counter-ions that a name gives are not always drawn. Like-named read-outs stand apart in the source and are kept apart here.

Experiments:
[1] = rcm bond, Grubbs 2nd generation catalyst
MCL-1 = MCL-1 (Homo sapiens, UniProt Q07820); experiment: Protein-protein interaction assay MCL-1/Noxa BH3 peptide (MCL-1 assay), TR-FRET; type: binding; conditions: MBP-MCL-1 / Noxa BH3-derived peptide, median
Chain of MCL-1 (Q07820 whole entry): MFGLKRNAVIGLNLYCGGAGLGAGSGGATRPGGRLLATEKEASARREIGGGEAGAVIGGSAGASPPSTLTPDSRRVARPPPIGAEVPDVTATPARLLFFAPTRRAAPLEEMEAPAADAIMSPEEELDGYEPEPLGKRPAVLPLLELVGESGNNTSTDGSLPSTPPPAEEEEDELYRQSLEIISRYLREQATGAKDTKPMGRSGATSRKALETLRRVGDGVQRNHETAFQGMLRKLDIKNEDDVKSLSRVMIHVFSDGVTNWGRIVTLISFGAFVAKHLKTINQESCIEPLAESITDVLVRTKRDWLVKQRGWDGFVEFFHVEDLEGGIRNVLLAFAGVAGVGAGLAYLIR
Method in brief: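 Steady-state competition, MCL-1/Noxa BH3, TR-FRET readout; 1 nM MBP-MCL-1, 11-point dose series 0.1 nM–20 μM; overnight 4 °C equilibration; 4-parameter IC50.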

SUDHL5 [2] = experiment: Induction of caspase-3/7 activity (Caspase-Glo 3/7), SUDHL5; type: cell-based; conditions: caspase-3/7 induction, SUDHL5 cells, 3 h treatment; median
Method in brief: (§1)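 A 3 h, 37 °C compound incubation precedes the Caspase-Glo 3/7 read. After subtracting medium-only signal, EC50s are fitted against the reference compound's maximal caspase induction.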

SUDHL10 [3] = experiment: Induction of caspase-3/7 activity (Caspase-Glo 3/7), SUDHL10; type: cell-based; conditions: caspase-3/7 induction, SUDHL10 cells, 3 h treatment; median
Method in brief: as §1

SUDHL5 [4] = experiment: Anti-proliferative effect (CellTiter-Glo, 72 h), SUDHL5; type: cell-based; conditions: SUDHL5 cells, antiproliferation, 72 h incubation, median, read-out: Antiproli SUDHL5 [M] (median)
Method in brief: (§2)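 Endpoint: CellTiter-Glo luminescence, 10 min after reagent addition. Treatment ran 72 h at 37 °C, humidified. Growth was referenced to a separately plated day 0 plate.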

SUDHL10 [5] = experiment: Anti-proliferative effect (CellTiter-Glo, 72 h), SUDHL10; type: cell-based; conditions: SUDHL10 cells, antiproliferation, 72 h incubation, median, read-out: Antiproli SUDHL10 [M] (median)
Method in brief: as §2

OPM2 = experiment: Anti-proliferative effect (CellTiter-Glo, 72 h), OPM2; type: cell-based; conditions: OPM2 cells, median, read-out: IC50 antiproliferation assay OPM2 [M] (median)
Method in brief: as §2

A2780 = experiment: Anti-proliferative effect (CellTiter-Glo, 72 h), A2780; type: cell-based; conditions: A2780 cells, median, read-out: IC50 antiproliferation assay A2780 [M] (median)
Method in brief: as §2

MV-4-11 = experiment: Anti-proliferative effect (CellTiter-Glo, 72 h), MV-4-11; type: cell-based; conditions: MV-4-11 cells, median, read-out: IC50 antiproliferation assay MV-4-11 [M] (median)
Method in brief: as §2

SUDHL5 [6] = experiment: Induction of cytotoxicity (CellTiter-Glo, 5 h), SUDHL5; conditions: read-out: Cytotox SUDHL5 [M] (median); SUDHL5 cells, cytotoxicity induction, CellTiter-Glo, 5 h incubation, median
SUDHL10 [7] = experiment: Induction of cytotoxicity (CellTiter-Glo, 5 h), SUDHL10
[8] = read-out: Cytotox SUDHL10 [M] (median), SUDHL10 cells, cytotoxicity induction, CellTiter-Glo, 5 h incubation, median

CCOC(=O)c1c(CCCOc2cccc3ccccc23)c2cccc3c2n1CC=CCN(Cc1ccccc1)c1c-3c(C)nn1C
ring closure, yield of all isomers ([1]; from C=CCN(Cc1ccccc1)c1c(-c2cccc3c(CCCOc4cccc5ccccc45)c(C(=O)OCC)n(CC=C)c23)c(C)nn1C, toluene, 6.11 mM, 90.0 °C, 5.5 h): 96.7%

CCOCc1nn(C)c2c1-c1cccc3c(CCCOc4cccc5ccccc45)c(C(=O)OCC)n(c13)CC=CCOC2 (mixture of isomers)
ring closure, yield of all isomers ([1]; from C=CCOCc1c(-c2cccc3c(CCCOc4cccc5ccccc45)c(C(=O)OCC)n(CC=C)c23)c(COCC)nn1C, dichloromethane, 76.0 mM, 25.0 °C, 24.0 h): 47.3%

CCOC(=O)c1c(CCCOc2cccc3ccccc23)c2cccc3c2n1CC=CCOCc1c-3c(CN2CCOCC2)nn1C (mixture of isomers)
ring closure, yield of all isomers ([1]; from C=CCOCc1c(-c2cccc3c(CCCOc4cccc5ccccc45)c(C(=O)OCC)n(CC=C)c23)c(CN2CCOCC2)nn1C, dichloromethane, 79.5 mM, 25.0 °C, 48.0 h): 14.2%

CCOC(=O)c1c(CCCO[Si](C)(C)C(C)(C)C)c2cccc3c2n1CC=CCOCc1c-3c(C)nn1C (mixture of isomers)
ring closure, yield of all isomers ([1]; from C=CCOCc1c(-c2cccc3c(CCCO[Si](C)(C)C(C)(C)C)c(C(=O)OCC)n(CC=C)c23)c(C)nn1C, dichloromethane, 48.0 mM, 25.0 °C, 16.0 h): 52.7%

CCOC(=O)c1c(CCCOc2cccc3ccccc23)c2cccc3c2n1CC=CCOCCc1c-3c(C)nn1C (mixture of isomers)
ring closure, yield of all isomers ([1]; from C=CCOCCc1c(-c2cccc3c(CCCOc4cccc5ccccc45)c(C(=O)OCC)n(CC=C)c23)c(C)nn1C, dichloromethane, 50.9 mM, 25.0 °C, 48.0 h): 47.5%

CCOC(=O)c1c(CCCOc2cccc3ccccc23)c2cccc3c2n1CC=CCOCc1c-3c(COC(C)C)nn1C
ring closure, yield of all isomers ([1]; from C=CCOCc1c(-c2cccc3c(CCCOc4cccc5ccccc45)c(C(=O)OCC)n(CC=C)c23)c(COC(C)C)nn1C, dichloromethane, 77.5 mM, 25.0 °C, 24.0 h): 89.2%

CCOC(=O)c1c(CCCOc2cccc3ccccc23)c2cccc3c2n1CC=CCOCc1c-3c(COc2ccccc2)nn1C (mixture of isomers)
ring closure, yield of all isomers ([1]; from C=CCOCc1c(-c2cccc3c(CCCOc4cccc5ccccc45)c(C(=O)OCC)n(CC=C)c23)c(COc2ccccc2)nn1C, dichloromethane, 78.3 mM, 25.0 °C, 24.0 h): 56.9%

CCOC(=O)c1c(CCCOc2cccc3ccccc23)c2cccc3c2n1CC=CCOCc1c-3c(COc2ccc(C3(OC)CCOCC3)cc2)nn1C (mixture of isomers)
ring closure, yield of all isomers ([1]; from C=CCOCc1c(-c2cccc3c(CCCOc4cccc5ccccc45)c(C(=O)OCC)n(CC=C)c23)c(COc2ccc(C3(OC)CCOCC3)cc2)nn1C, dichloromethane, 78.4 mM, 25.0 °C, 72.0 h): 39.1%

CCOC(=O)c1c(CCCOc2cccc3ccccc23)c2cccc3c2n1CC=CCOCc1nn(C)c(C)c1-3 (mixture of isomers)
ring closure, yield of all isomers ([1]; from C=CCOCc1nn(C)c(C)c1-c1cccc2c(CCCOc3cccc4ccccc34)c(C(=O)OCC)n(CC=C)c12, dichloromethane, 77.8 mM, 25.0 °C, 16.0 h): 15%

CCOC(=O)c1c(CCCOc2cccc3ccccc23)c2cccc3c2n1CC=CCOCc1c-3c(COc2ccc(C3(O)CCOCC3)cc2)nn1C (mixture of isomers)
ring closure, yield of all isomers ([1]; from C=CCOCc1c(-c2cccc3c(CCCOc4cccc5ccccc45)c(C(=O)OCC)n(CC=C)c23)c(COc2ccc(C3(O)CCOCC3)cc2)nn1C, dichloromethane, 80.0 mM, 25.0 °C, 72.0 h): 66.1%

CCOC(=O)c1c(CCCOc2cccc3ccccc23)c2cccc3c2n1CC=CCOCc1c-3c(COc2ccc(N3CCOCC3)cc2)nn1C (mixture of isomers)
ring closure, yield of all isomers ([1]; from C=CCOCc1c(-c2cccc3c(CCCOc4cccc5ccccc45)c(C(=O)OCC)n(CC=C)c23)c(COc2ccc(N3CCOCC3)cc2)nn1C, dichloromethane, 39.1 mM, 25.0 °C, 44.0 h): 53.3%

Cc1c2c(nn1C)CN(C)CCCn1c(C(=O)O)c(CCCOc3cccc4ccccc34)c3cccc-2c31 (single isomer, unassigned; enantiomer 2) [Example 1-35, 7,10,11-trimethyl-1-[3-(naphthalen-1-yloxy)propyl]-4,5,6,7,8,10-hexahydropyrazolo[3′,4′:7,8][1,5]diazecino[9,10,1-hi]indole-2-carboxylic Acid-N-ethylethanamine Salt (Enantiomer 2)]
IC50 (MCL-1): 0.11 µM | EC50 (SUDHL5 [2]): 26.9 µM | EC50 (SUDHL10 [3]): > 33 µM | IC50 (SUDHL5 [4]): 2.56e-05 M | IC50 (SUDHL10 [5]): 3.25e-05 M | IC50 (OPM2): > 3.3e-05 M | IC50 (A2780): > 3.3e-05 M | IC50 (MV-4-11): 1.96e-05 M | IC50 (SUDHL5 [6]): 2.02e-05 M | IC50 (SUDHL10 [7]; [8]): 1.18e-05 M

Cc1nn(C)c2c1-c1cccc3c(CCCOc4cccc5ccccc45)c(C(=O)O)n(c13)CCCN(c1ccc(N3CCOCC3)cc1)C2 (single isomer, unassigned; enantiomer 1) [Example 1-99, 9,11-Dimethyl-7-[4-(morpholin-4-yl)phenyl]-1-[3-(1-naphthyloxy)propyl]-4,5,6,7,8,9-hexahydropyrazolo[3′,4′:7,8][1,5]diazecino[9,10,1-hi]indole-2-carboxylic Acid (Enantiomer 1)]
IC50 (MCL-1): 0.0203 µM | EC50 (SUDHL5 [2]): 9 µM | EC50 (SUDHL10 [3]): 13.5 µM | IC50 (SUDHL5 [4]; Homo sapiens, SU-DHL-5, 72 h): 8.76e-06 M | IC50 (SUDHL10 [5]; Homo sapiens, SU-DHL10, 72 h): 4.63e-06 M | IC50 (OPM2; Homo sapiens, OPM-2, 72 h): 1.98e-05 M | IC50 (A2780; Homo sapiens, A2780, 72 h): 1.12e-05 M | IC50 (MV-4-11; Homo sapiens, MV4-11, 72 h): 7.19e-06 M | IC50 (SUDHL5 [6]): 1.3e-05 M | IC50 (SUDHL10 [7]; Homo sapiens, SU-DHL10, 5 h, read-out: Cytotox SUDHL10 [M] (median), SUDHL10 cells, cytotoxicity induction, CellTiter-Glo, 5 h incubation, median): 1.93e-05 M

CN1CCCn2c(C(=O)O)c(CCCOc3cccc4ccccc34)c3cccc(c32)-c2c(COc3ccc(S(C)(=O)=O)cc3)nn(C)c2C1 (single isomer, unassigned) [Example 1-50]
IC50 (MCL-1): 0.0167 µM | EC50 (SUDHL5 [2]): 6.14 µM | EC50 (SUDHL10 [3]): 6.71 µM | IC50 (SUDHL5 [4]): 5.52e-06 M | IC50 (SUDHL10 [5]): 9.59e-06 M | IC50 (OPM2): 1.21e-05 M | IC50 (A2780): 1.83e-05 M | IC50 (MV-4-11): 1.05e-05 M | IC50 (SUDHL5 [6]): 5.74e-06 M | IC50 (SUDHL10 [7]; [8]): 1.26e-05 M

CCOC(=O)c1c(CCCOc2cccc3ccccc23)c2cccc3c2n1CC=CCOCc1c-3cnn1C (mixture of isomers)
ring closure, yield of all isomers ([1]; from C=CCOCc1c(-c2cccc3c(CCCOc4cccc5ccccc45)c(C(=O)OCC)n(CC=C)c23)cnn1C, dichloromethane, 78.2 mM, 25.0 °C, 24.0 h): 42.1%

CCOC(=O)c1c(CCCOc2cccc3ccccc23)c2cccc3c2n1CC=CCOCc1c-3c(COCc2ccccc2)nn1C (mixture of isomers)
ring closure, yield of all isomers ([1]; from C=CCOCc1c(-c2cccc3c(CCCOc4cccc5ccccc45)c(C(=O)OCC)n(CC=C)c23)c(COCc2ccccc2)nn1C, dichloromethane, 76.8 mM, 25.0 °C, 72.0 h): 74.2%
